Reference: ChEMBL document CHEMBL1149925, “Application of hygromycin a structure activity relationships to the antibiotic A201A” (1993)
Converted amounts (≈) assume the structure as drawn.

Experiments:
[1] = tested on: Pasteurella multocida; experiment: Tested for antibacterial activity expressed as minimum inhibitory concentration against Pasteurella multocida; type: functional
[2] = tested on: Brachyspira hyodysenteriae; experiment: Tested for antibacterial activity expressed as minimum inhibitory concentration against Serpulina (Treponema) hyodysenteriae; type: functional

| SMILES | MIC [1] [µg/mL] | MIC [2] [µg/mL] |
| --- | --- | --- |
| C=CCOc1ccc(/C=C(\C)C(=O)N[C@H]2[C@@H](O)[C@H](OC)O[C@@H]2CO)cc1O | > 200 | > 200 |
| C=CCOc1ccc(/C=C(\C)C(=O)N[C@H]2C(O)[C@H](n3cnc4c(N(C)C)ncnc43)O[C@@H]2CO)cc1O (some centres not stated) | 6.25 (≈ 12.2 µM) | 1.56 (≈ 3.06 µM) |
| CC(=O)[C@H]1O[C@@H](Oc2ccc(/C=C(\C)C(=O)N[C@@H]3[C@H](O)[C@@H](O)[C@H]4OCO[C@H]4[C@@H]3O)cc2O)[C@@H](O)[C@@H]1O [HYGROMYCIN A] | 0.78 (≈ 1.52 µM) | 0.78 (≈ 1.52 µM) |
| CO/C(CO[C@H]1O[C@H](C)[C@@H](OC)[C@H](OC)[C@@H]1O)=C1\O[C@@H](Oc2ccc(/C=C(\C)C(=O)NC3C(O)[C@H](n4cnc5c(N(C)C)ncnc54)O[C@@H]3CO)cc2)[C@@H](O)[C@@H]1O (some centres not stated) | 3.13 (≈ 3.9 µM) | 3.13 (≈ 3.9 µM) |
| C/C(=C\c1ccc(O[C@@H]2O[C@H]([C@H](C)O)[C@@H](O)[C@@H]2O)c(O)c1)C(=O)N[C@H]1C(O)[C@H](n2cnc3c(N(C)C)ncnc32)O[C@@H]1CO (some centres not stated) | 200 (≈ 324 µM) | 200 (≈ 324 µM) |
| COc1ccc(/C=C(\C)C(=O)N[C@@H]2[C@H](O)[C@@H](O)[C@H]3OCO[C@H]3[C@@H]2O)cc1 | > 200 | > 200 |
| C/C(=C\c1ccc(O[C@@H]2O[C@H]([C@H](C)O)[C@@H](O)[C@@H]2O)c(O)c1)C(=O)N[C@@H]1[C@H](O)[C@@H](O)[C@H]2OCO[C@H]2[C@@H]1O | 6.25 (≈ 12.2 µM) | 3.13 (≈ 6.1 µM) |
| C=CCOc1ccc(/C=C(\C)C(=O)N[C@@H]2[C@H](O)[C@@H](O)[C@H]3OCO[C@H]3[C@@H]2O)cc1O | 3.13 (≈ 7.68 µM) | 0.78 (≈ 1.91 µM) |
| C=CCOc1ccc(/C=C(\C)C(=O)N[C@@H]2[C@H](O)[C@@H](O)[C@H]3OCO[C@H]3[C@@H]2O)cc1 | 50 (≈ 128 µM) | 6.25 (≈ 16 µM) |
| C=CCOc1ccc(/C=C(\C)C(=O)N[C@H]2C(O)[C@H](n3cnc4c(N(C)C)ncnc43)O[C@@H]2CO)cc1 (some centres not stated) | > 200 | 50 (≈ 101 µM) |
| COc1ccc(/C=C(\C)C(=O)N[C@H]2C(O)[C@H](n3cnc4c(N(C)C)ncnc43)O[C@@H]2CO)cc1 (some centres not stated) | 200 (≈ 427 µM) | 50 (≈ 107 µM) |
